Results published in patent US20190358214A1, “Compositions and Methods for Treating HCV Infection” (AbbVie Inc., priority 2016, published 2019).

Columns and labels:
[1] = as described in Example 41 of U.S. patent application Ser. No. 15/254,342; cited from earlier work
[2] = modeling translating dog study results to human liver pharmacokinetics; details: modeled from dog study, once daily dosing
Description: (§1) This was believed to be attributed to the unique prodrug moiety in Compound 1, which is different from that in sofosbuvir. See paragraphs [0017]. [0018] and [0019] of U.S. patent application Ser. No. 15/254,342. In 4-day repeat dose dog liver biopsy study, Compound 1 dosed orally at 1 mg/kg delivered the similar liver triphosphate levels as sofosbuvir dosed orally at 5 mg/kg. Further modeling provided that 75 mg Compound 1 once daily dosing in human patients would match the liver triphosphate Cmax achieved by 400 mg sofosbuvir once daily dosing, that 80 mg Compound 1 once daily dosing in human patients would match the liver triphosphate AUC0-24 achieved by 400 mg sofosbuvir once daily dosing, and that 16 mg Compound 1 once daily dosing in human patients would maintain Cmin above GT1b polymerase EC50. The model that was used to translate dog study results to human liver pharmacokinetics was validated by sofosbuvir data.

[3] = 4-day repeat dose dog liver biopsy study; format: in vivo; details: Compound 1 dosed orally at 1 mg/kg
Description: as §1

**Q.** Which “active triphosphate profiles as compared to sofosbuvir” value [1] does the source give for CCOC(=O)C(C)(C)N[P@](=O)(OC[C@H]1O[C@@H](n2ccc(=O)[nH]c2=O)[C@@](F)(Br)[C@@H]1O)Oc1ccccc1 [Compound 1] here?
**A.** significantly improved

**Q.** And the “once daily dose in human patients that would maintain Cmin above GT1b polymerase EC50” value [2]?
**A.** 16 mg

**Q.** What about the “once daily dose in human patients that would match the liver triphosphate AUC0-24 achieved by 400 mg sofosbuvir once daily” value [2] of the same molecule?
**A.** 80 mg

**Q.** And the “once daily dose in human patients that would match the liver triphosphate Cmax achieved by 400 mg sofosbuvir once daily” value [2]?
**A.** 75 mg

**Q.** And the “liver triphosphate levels compared with sofosbuvir dosed orally at 5 mg/kg” value [3]?
**A.** similar
